The text below walks through data of patent publication US20250146022A1, “STABILISING THE HUMAN SPINDLE BY KIFC1/HSET” (MAX-PLANCK-GESELLSCHAFT ZUR FOERDERUNG DER WISSENSCHAFTEN …, priority 2021, published 2025).

The subject of this assay is KIFC1/HSET-depleted aMTOC-free mouse oocytes. The assay can be described thus: Rescue of spindle polarity in KIFC1/HSET-depleted aMTOC-free mouse oocytes (human oocyte mimics). It is filed as cell-based. The text has this: This domain, together with the conserved, microtubule-binding motor domain, allows KIFC1/HSET to organize microtubules via crosslinking and/or sliding (86). To investigate the requirement of different domains in KIFC1/HSET, the inventors expressed a series of truncation mutants in aMTOC-free mouse oocytes (FIG. 7K). […] To examine whether the motor activity is dispensable for the function of KIFC1/HSET in aMTOC-free mouse oocytes, the inventors depleted endogenous KIFC1/HSET by follicle RNAi and restored expression with wild-type HSET or with HSET(N593K), which crosslinks microtubules but cannot slide (87). […] Together, the inventors infer that the appropriate level of KIFC1/HSET's crosslinking and sliding activities are required for proper bipolar spindle assembly in the absence of aMTOCs.
Mouse follicles were microinjected with 3.5 pl of siRNAs at a needle concentration of 2 μM as previously described (11). For rescue experiments, in vitro grown oocytes were microinjected with 3.5 pl of mRNAs. mClover3-HSET mRNA was microinjected at a needle concentration of 275 ng/μl, mClover3-HSET(N593K) mRNA at 275 ng/μl, mClover3-NUMA(S1955D) mRNA at 400 ng/μl, mClover3-NUMA(S1955A) mRNA at 400 ng/μl, mClover3-NUMA(SpM-4A) mRNA at 400 ng/μl, mClover3-NUMA(ΔMTBD1) mRNA at 400 ng/μl and mClover3-NUMA(ΔMTBD2) mRNA at 400 ng/μl. Oocytes were allowed to express the mRNAs for 3-4 h before release.
To obtain mouse MI spindles, oocytes were incubated at 37° C. for around 7 h after released into dbcAMP-free medium. To obtain porcine and bovine MI spindles, oocytes were incubated at 39° C./5% CO2 for around 11 and 12 h, respectively, after released into RO-3306-free medium. To obtain human MI spindles, oocytes were incubated at 37° C. for around 14 and 15 h after NEBD. None of the oocytes used for immunofluorescence analyses was subjected to live imaging before fixation.
Time-lapse movies of live mouse, bovine and porcine oocytes, and fixed human and mouse spindles were analyzed in 3D using Imaris (Bitplane). To determine the stages of meiosis and to score for spindle instability, the timing of meiotic progression was quantified relative to the timing of NEBD. NEBD was defined as the time point when the sharp boundary between the nucleus and cytoplasm disappeared in the differential interference contrast image (for mouse oocytes) or when the nucleus started collapsing in the H2B channel (for bovine and porcine oocytes). Spindle poles were defined as regions of MAP4 or MAP4-MTBD or α-tubulin intensity that prominently protruded from the main microtubule mass. In FIG. 1D, oocytes with bipolar spindle, in which ends of all microtubules converged at the poles, were scored as having focused poles. […] For mouse oocytes, unfocused poles were further classified into mildly unfocused poles (with partially separated microtubule ends) and severely unfocused poles (with fully separated microtubule ends). In FIG. 4D, bovine and porcine oocytes, in which the spindle maintained a barrel-shaped bipolar morphology and a detectable spindle axis, were scored as having stable spindle poles. Oocytes, in which the spindle lost their initial bipolarity and underwent dynamic remodeling of the pole(s) were scored as having unstable spindle poles. […] Oocytes, in which the spindle had more than two poles, were scored as having multipolar spindle. In FIG. 1H, mouse oocytes, in which the spindle had two well-defined poles, were scored as having bipolar spindle. Mouse oocytes, in which the spindle had two poorly defined poles, were scored as having apolar/round spindle. Mouse oocytes, in which the spindle had more than two poles, were scored as having multipolar spindle. […] Mouse oocytes, in which the spindle lost its barrel shape but contains several weakly associated microtubule bundles, were scored as having disorganized spindle.

For “KIFC1/HSET: Recombinant mClover3-tagged human kinesin-14 KIFC1/HSET protein (SEQ ID NO: 1), expressed in 293 cells, microinjected into human oocytes and zygotes”, where the note is “FIG. 3H (left bar)”, the “fold higher probability of having a bipolar spindle vs mimics without introduced KIFC1/HSET” value turned out to be 3.2 fold. Also, the “difference in percentage of bipolar spindles” value (from around 30% to 96%) amounted to 66%. Moreover, under “re-introduction of KIFC1/HSET (rescue experiment) in human oocyte mimics, without around 30%, FIG. 3H”, the bipolar spindles result is on record as “around 96%”.
